According to patent US20250152647A1, “FORMULATIONS AND METHODS FOR SKIN CARE” (AMILYFE, LLC, priority 2022, published 2025):

Experiment: Preliminary screens of amino acids
Experimental: In addition to the amino acid combinations described above, several other combinations are tested that include, e.g., Trp and/or Arg to determine if inclusion of these amino acids confers additional dermatological benefits. […] At the outset, the following combinations of amino acids are tested: Ala, Gln, Gly, Ser (combo #1); Ala, Gln, Gly, Ser, Val, Ile (combo #2); Ala, Gln, Gly, Ser, Val; Ala, Gln, Gly, Ser, Ile; Ala, Gln, Gly, Ser, Ile, Val, Trp; Ala, Gln, Gly, Ser, Ile, Val, Arg; and Ala, Gln, Gly, Ser, Ile, Val, Trp, Arg.

Row | SMILES | effect in preliminary screens
1 | N=C(N)NCCC[C@H](N)C(=O)O [Arg, arginine] | positive effects
2 | N[C@@H](Cc1c[nH]c2ccccc12)C(=O)O [Trp, tryptophan] | positive effects
